From article PMC4448990 (Pharmacology Research & Perspectives, 2015)
Like-named read-outs stand apart in the source and are kept apart here. Marks after values point to notes of the source that are not given here.

How the values were obtained:
[1] = target: human α1β2γ2 GABAA receptors (Homo sapiens, UniProt P14867+P18507+P47870); experiment: submaximal GABA currents in Ltk cells; type: cell-based
[2] = system: latrunculin A-induced seizures; details: ESL 100 mg/kg oral, ref Sierra-Paredes et al. [2011], 2014, cited from earlier work
Racine stage 5 seizures = experiment: proconvulsant effects; type: in vivo
kindling epileptogenesis = experiment: bilateral corneal kindling; type: in vivo, mouse; details: Table 5 summary; values are ED50 (mg/kg)
MES-induced seizures = details: mouse, ESL 50 mg/kg p.o.; ref Pires et al. [2011]; cited from earlier work
[3] = target: T1, human GlyRα3 glycine receptors (Homo sapiens, UniProt O75311); experiment: submaximal glycine currents in CHO cells; type: cell-based
T1 sequence (O75311 34-464): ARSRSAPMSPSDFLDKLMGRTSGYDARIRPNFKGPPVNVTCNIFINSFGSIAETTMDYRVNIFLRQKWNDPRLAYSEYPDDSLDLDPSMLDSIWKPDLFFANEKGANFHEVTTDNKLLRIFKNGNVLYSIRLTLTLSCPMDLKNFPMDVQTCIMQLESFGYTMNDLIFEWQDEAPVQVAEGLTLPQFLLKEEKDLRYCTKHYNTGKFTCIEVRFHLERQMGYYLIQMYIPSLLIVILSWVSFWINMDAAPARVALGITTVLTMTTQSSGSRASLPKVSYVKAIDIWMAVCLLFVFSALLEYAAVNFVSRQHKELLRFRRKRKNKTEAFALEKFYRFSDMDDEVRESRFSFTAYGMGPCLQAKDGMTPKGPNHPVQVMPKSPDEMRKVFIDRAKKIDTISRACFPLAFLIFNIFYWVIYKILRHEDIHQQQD

hCav2.1 calcium channels = hCav2.1 calcium channels (Homo sapiens, UniProt O00555); experiment: whole-cell patch clamp, hCav2.1 in CHO cells; type: cell-based; details: IC50, hCav2.1 calcium peak currents, 0.3–1000 μmol/L, holding potential −80 mV
human GRIA1 receptor = human GRIA1 receptor (Homo sapiens, UniProt P42261); experiment: AMPA-receptor-mediated currents in CHO cells; type: cell-based
[4] = system: sodium channels endogenously expressed in N1E-115 mouse neuroblastoma cells; details: 250 μmol/L; ref Hebeisen et al. [2014]; cited from earlier work
[5] = target: human GRIN1/GRIN2B NMDA receptor (Homo sapiens, UniProt Q05586+Q13224); experiment: submaximal NMDA-receptor-mediated currents in HEK cells; type: cell-based
[6] = system: transient Na+ current (INaT); details: ref Döser et al. [2013b], [2015]; cited from earlier work
[7] = target: human Nav1.3 sodium channels (Homo sapiens, UniProt Q9NY46); experiment: whole-cell patch clamp, Nav1.3 in CHO-K1 cells; type: cell-based; details: 250 μmol/L; for Fast inactivation V0.5 / Slow inactivation V0.5: n = 3–6; for time constant for entering the slow inactivated state: control 20.29 sec
[8] = target: human α5β2γ2 GABAA receptors (Homo sapiens, UniProt P18507+P31644+P47870); experiment: submaximal GABA currents in Ltk cells; type: cell-based
[9] = target: human α3β2γ2 GABAA receptors (Homo sapiens, UniProt P18507+P34903+P47870); experiment: submaximal GABA currents in Ltk cells; type: cell-based
[10] = target: human α2β2γ2 GABAA receptors (Homo sapiens, UniProt P18507+P47869+P47870); experiment: submaximal GABA currents in Ltk cells; type: cell-based
[11] = target: hKv7.2 potassium channels (Homo sapiens, UniProt O43526); experiment: whole-cell patch clamp, hKv7.2 in CHO cells; type: cell-based
[12] = ref Doty et al. [2007]; cited from earlier work
[13] = human plasma and CSF pharmacokinetics; type: in vivo; details: LCM 600 mg twice daily, protein binding ∼15%
[14] = ref Nunes et al. [2013], cited from earlier work

Sequence of human α2β2γ2 GABAA receptors (P47869 29-451): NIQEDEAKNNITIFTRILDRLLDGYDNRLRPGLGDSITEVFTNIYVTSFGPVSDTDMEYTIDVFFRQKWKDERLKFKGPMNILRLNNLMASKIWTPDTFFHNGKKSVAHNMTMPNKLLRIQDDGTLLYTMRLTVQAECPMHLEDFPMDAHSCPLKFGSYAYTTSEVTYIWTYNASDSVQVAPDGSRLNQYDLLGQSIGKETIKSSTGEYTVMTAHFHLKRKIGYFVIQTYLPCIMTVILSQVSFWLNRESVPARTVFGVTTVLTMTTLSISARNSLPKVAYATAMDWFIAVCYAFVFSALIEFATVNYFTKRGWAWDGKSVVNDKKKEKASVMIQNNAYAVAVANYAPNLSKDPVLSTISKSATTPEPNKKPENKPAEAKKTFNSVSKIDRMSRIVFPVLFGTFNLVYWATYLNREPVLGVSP
Sequence of human α2β2γ2 GABAA receptors (P47870 25-512 limits assumed): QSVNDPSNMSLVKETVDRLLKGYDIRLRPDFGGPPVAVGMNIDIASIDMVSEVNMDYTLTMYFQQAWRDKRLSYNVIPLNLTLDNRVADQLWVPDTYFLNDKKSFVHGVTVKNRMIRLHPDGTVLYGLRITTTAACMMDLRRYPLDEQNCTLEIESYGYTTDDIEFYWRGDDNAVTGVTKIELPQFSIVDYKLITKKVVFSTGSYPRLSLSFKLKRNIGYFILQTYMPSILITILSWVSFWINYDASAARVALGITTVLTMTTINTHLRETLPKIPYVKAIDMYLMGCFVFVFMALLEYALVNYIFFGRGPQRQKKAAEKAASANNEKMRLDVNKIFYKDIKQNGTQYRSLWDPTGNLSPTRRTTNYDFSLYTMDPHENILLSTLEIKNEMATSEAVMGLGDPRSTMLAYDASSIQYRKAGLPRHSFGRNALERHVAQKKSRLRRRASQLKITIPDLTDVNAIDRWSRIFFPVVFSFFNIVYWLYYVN
Sequence of human α2β2γ2 GABAA receptors (P18507 40-475): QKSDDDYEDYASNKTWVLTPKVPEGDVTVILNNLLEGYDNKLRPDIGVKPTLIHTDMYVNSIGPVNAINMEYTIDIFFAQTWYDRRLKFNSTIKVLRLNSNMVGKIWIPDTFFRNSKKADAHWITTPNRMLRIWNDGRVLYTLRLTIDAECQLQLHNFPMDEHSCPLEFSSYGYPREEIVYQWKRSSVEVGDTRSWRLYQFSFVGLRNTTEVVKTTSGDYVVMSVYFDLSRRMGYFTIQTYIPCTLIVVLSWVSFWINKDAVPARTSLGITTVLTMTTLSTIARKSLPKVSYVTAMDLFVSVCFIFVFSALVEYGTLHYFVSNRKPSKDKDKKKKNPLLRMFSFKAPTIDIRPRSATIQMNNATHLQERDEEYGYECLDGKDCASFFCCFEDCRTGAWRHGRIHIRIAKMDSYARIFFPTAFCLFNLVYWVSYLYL
Sequence of human Nav1.3 sodium channels (Q9NY46 whole entry): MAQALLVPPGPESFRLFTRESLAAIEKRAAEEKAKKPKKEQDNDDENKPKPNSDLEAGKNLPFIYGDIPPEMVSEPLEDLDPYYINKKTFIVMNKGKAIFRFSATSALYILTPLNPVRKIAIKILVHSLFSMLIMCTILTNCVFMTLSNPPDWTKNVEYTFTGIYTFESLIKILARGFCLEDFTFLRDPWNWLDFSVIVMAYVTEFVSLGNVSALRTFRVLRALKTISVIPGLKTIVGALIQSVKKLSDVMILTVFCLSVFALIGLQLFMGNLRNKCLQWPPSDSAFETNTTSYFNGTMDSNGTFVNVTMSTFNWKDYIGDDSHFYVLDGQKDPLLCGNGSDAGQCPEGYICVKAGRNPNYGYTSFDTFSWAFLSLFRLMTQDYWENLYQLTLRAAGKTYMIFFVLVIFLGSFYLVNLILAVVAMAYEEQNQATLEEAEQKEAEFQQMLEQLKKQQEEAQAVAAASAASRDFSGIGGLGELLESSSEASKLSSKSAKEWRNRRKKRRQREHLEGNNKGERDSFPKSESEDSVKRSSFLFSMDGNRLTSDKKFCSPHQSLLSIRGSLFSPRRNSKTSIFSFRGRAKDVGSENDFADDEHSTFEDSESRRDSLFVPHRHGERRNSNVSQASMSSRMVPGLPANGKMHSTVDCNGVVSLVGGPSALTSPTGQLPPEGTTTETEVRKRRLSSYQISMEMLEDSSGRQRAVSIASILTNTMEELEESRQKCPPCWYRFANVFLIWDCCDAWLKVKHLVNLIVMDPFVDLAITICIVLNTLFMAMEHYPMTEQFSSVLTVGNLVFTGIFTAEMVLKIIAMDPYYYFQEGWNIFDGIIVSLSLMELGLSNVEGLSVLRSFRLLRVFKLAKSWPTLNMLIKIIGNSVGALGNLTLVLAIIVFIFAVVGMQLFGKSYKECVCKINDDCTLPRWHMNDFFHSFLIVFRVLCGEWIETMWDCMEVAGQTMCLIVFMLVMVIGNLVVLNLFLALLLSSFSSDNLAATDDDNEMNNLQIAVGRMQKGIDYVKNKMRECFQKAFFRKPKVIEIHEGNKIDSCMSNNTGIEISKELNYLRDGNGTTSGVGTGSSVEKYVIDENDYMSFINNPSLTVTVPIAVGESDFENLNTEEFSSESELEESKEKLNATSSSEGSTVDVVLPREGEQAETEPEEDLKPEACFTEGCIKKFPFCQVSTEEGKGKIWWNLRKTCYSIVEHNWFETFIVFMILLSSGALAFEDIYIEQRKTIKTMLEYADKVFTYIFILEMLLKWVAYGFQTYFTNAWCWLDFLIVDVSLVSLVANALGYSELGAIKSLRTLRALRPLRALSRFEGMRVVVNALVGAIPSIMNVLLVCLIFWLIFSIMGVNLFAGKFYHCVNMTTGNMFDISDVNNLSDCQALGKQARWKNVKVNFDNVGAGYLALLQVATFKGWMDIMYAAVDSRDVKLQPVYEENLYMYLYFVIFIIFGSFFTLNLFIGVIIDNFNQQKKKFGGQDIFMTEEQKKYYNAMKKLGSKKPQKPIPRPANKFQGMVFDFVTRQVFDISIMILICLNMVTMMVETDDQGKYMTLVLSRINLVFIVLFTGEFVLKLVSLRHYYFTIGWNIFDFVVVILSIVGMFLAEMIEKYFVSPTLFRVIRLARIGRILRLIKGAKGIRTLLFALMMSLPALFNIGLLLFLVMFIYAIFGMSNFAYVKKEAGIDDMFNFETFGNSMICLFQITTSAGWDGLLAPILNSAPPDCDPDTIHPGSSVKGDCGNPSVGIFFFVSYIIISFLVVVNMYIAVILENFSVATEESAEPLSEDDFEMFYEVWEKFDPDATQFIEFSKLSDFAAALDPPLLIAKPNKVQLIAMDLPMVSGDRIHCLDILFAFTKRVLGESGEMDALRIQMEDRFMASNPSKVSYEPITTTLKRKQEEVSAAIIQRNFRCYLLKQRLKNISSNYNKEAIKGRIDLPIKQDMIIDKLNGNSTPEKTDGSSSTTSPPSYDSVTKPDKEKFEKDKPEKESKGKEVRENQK
Sequence of human α5β2γ2 GABAA receptors (P31644 32-462): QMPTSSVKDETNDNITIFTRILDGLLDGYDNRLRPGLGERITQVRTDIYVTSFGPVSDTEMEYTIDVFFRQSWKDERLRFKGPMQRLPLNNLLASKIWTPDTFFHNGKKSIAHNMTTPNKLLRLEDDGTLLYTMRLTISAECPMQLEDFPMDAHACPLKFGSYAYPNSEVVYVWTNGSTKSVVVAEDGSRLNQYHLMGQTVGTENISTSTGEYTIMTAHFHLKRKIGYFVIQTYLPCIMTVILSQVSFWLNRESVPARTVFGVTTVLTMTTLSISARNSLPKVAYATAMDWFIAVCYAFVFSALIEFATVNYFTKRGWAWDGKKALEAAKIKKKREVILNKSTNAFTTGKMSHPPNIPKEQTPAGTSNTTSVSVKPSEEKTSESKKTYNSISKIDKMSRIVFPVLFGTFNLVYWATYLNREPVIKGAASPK
Sequence of human α5β2γ2 GABAA receptors (P47870 25-512 limits assumed): as the sequence (P47870 25-512 limits assumed) above
Sequence of human α5β2γ2 GABAA receptors (P18507 40-475): as the sequence (P18507 40-475) above
Sequence of human α1β2γ2 GABAA receptors (P14867 28-456): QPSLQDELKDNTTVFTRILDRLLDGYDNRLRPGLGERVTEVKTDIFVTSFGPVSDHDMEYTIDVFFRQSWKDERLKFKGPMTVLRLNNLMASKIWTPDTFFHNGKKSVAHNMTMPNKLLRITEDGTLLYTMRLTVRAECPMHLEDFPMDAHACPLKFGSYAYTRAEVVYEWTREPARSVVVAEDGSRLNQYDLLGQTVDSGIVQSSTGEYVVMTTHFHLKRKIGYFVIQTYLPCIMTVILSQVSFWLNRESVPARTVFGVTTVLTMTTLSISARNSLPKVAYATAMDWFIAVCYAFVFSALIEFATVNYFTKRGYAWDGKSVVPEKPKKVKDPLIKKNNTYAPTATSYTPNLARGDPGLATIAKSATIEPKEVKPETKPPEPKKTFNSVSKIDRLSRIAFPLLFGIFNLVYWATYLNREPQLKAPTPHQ
Sequence of human α1β2γ2 GABAA receptors (P47870 25-512 limits assumed): as the sequence (P47870 25-512 limits assumed) above
Sequence of human α1β2γ2 GABAA receptors (P18507 40-475): as the sequence (P18507 40-475) above
Sequence of human α3β2γ2 GABAA receptors (P34903 29-492): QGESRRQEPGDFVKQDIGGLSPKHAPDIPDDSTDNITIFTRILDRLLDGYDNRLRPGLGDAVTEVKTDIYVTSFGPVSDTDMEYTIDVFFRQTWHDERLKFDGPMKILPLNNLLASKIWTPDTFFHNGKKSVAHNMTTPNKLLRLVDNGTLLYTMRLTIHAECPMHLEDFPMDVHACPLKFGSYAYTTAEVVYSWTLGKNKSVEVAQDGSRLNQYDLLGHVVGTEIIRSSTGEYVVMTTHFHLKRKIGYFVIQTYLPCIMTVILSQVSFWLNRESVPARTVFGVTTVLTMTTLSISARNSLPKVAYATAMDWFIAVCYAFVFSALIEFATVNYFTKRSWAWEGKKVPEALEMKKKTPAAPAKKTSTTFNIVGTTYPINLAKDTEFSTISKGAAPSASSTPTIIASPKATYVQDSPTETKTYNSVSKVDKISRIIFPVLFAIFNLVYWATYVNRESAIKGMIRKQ
Sequence of human α3β2γ2 GABAA receptors (P47870 25-512 limits assumed): as the sequence (P47870 25-512 limits assumed) above
Sequence of human α3β2γ2 GABAA receptors (P18507 40-475): as the sequence (P18507 40-475) above

Cc1ncc2n1-c1ccc(Cl)cc1C(c1ccccc1F)=NC2 [midazolam]
increase of submaximal α1β2γ2 GABA currents ([1]; 3 μmol/L): ~80%

CC(=O)O[C@H]1Cc2ccccc2N(C(N)=O)c2ccccc21 [ESL, (S)-10-acetoxy-10,11-dihydro-5H-dibenz/b,f/azepine-5-carboxamide]
hippocampal extracellular glutamate levels ([2]; microdialysate): significantly reduced glutamate levels | acute and chronic latrunculin A-induced seizures and EEG chronic signs of paroxysmal activity ([2]; Swiss mice, previous to latrunculin A microperfusion): completely prevented | Racine stage 5 seizures (proconvulsant effects) (Racine stage 5 seizures; at 240 mg/kg): 22% ^* | Corneal kindling (antiepileptogenic models) (kindling epileptogenesis): 30 mg/kg | protection against MES-induced seizures (MES-induced seizures): 97%

NC(=O)N1c2ccccc2C=Cc2ccccc21 [CBZ, carbamazepine]
IC50 [3]: 441 µM | IC50 (hCav2.1 calcium channels): 452 µM | IC50, AMPA currents (human GRIA1 receptor; CHO cells, human GRIA1): neither eslicarbazepine nor CBZ significantly changed AMPA currents | Racine stage 5 seizures (proconvulsant effects) (Racine stage 5 seizures; at 45 mg/kg): 80% ^** | recovery of fast inactivated channels [4]: required longer pulses to recover | GABA inward current stimulation, α1β2γ2, Mean ± SEM ([1]; 50 μmol/L): 104.3 ± 5.0 | GABA inward current stimulation, α1β2γ2, Mean ± SEM ([1]; 100 μmol/L): 117.4 ± 4.9 | GABA inward current stimulation, α1β2γ2, Mean ± SEM ([1]; 250 μmol/L): 115.7 ± 5.3 | GABA inward current stimulation, α1β2γ2, Mean ± SEM ([1]; 500 μmol/L): 132.4 ± 5.3 | GABA inward current stimulation, α1β2γ2, Mean ± SEM ([1]; 1000 μmol/L): 150.3 ± 15.5 | increase of submaximal α1β2γ2 GABA currents ([1]; 1000 μmol/L): 50% | IC50 [5]: 214 µM | inhibition of firing of DGCs, control versus pilocarpine-treated rats [6]: significantly reduced in chronic experimental epilepsy | Fast inactivation V0.5 ([7]; mean ± SEM): −72.33 ± 5.04 mV | Slow inactivation V0.5 ([7]; mean ± SEM): −21.56 ± 3.23 mV | Fast inactivation, individual shifts ([7]; versus control (bath), mean ± SEM): −14.35 mV | time constant for entering the slow inactivated state [7]: not affected | GABA inward current stimulation, α5β2γ2, Mean ± SEM ([8]; 50 μmol/L): 103.8 ± 1.5 | GABA inward current stimulation, α5β2γ2, Mean ± SEM ([8]; 100 μmol/L): 103.8 ± 4.5 | GABA inward current stimulation, α5β2γ2, Mean ± SEM ([8]; 250 μmol/L): 93.6 ± 4.3 | GABA inward current stimulation, α5β2γ2, Mean ± SEM ([8]; 500 μmol/L): 80.7 ± 5.9 | GABA inward current stimulation, α5β2γ2, Mean ± SEM ([8]; 1000 μmol/L): 63.0 ± 4.5 | Corneal kindling (antiepileptogenic models) (kindling epileptogenesis): 140 mg/kg | GABA inward current stimulation, α3β2γ2, Mean ± SEM ([9]; 50 μmol/L): 93.3 ± 4.1 | GABA inward current stimulation, α3β2γ2, Mean ± SEM ([9]; 100 μmol/L): 112.8 ± 5.4 | GABA inward current stimulation, α3β2γ2, Mean ± SEM ([9]; 250 μmol/L): 131.1 ± 9.4 | GABA inward current stimulation, α3β2γ2, Mean ± SEM ([9]; 500 μmol/L): 120.3 ± 11.8 | GABA inward current stimulation, α3β2γ2, Mean ± SEM ([9]; 1000 μmol/L): 166.7 ± 21.0 | increase of submaximal α3β2γ2 GABA currents ([9]; 1000 μmol/L): 66% | GABA inward current stimulation, α2β2γ2, Mean ± SEM ([10]; 50 μmol/L): 97.9 ± 3.3 | GABA inward current stimulation, α2β2γ2, Mean ± SEM ([10]; 100 μmol/L): 111.4 ± 2.7 | GABA inward current stimulation, α2β2γ2, Mean ± SEM ([10]; 250 μmol/L): 109.0 ± 7.6 | GABA inward current stimulation, α2β2γ2, Mean ± SEM ([10]; 500 μmol/L): 103.6 ± 7.6 | GABA inward current stimulation, α2β2γ2, Mean ± SEM ([10]; 1000 μmol/L): 104.2 ± 2.7 | IC50 [11]: 572 µM

O=C1C[C@@H]2OCC=C3CN4CC[C@]56c7ccccc7N1[C@H]5[C@H]2[C@H]3C[C@H]46 [Strychnine]
IC50 [3]: 0.052 µM

COC[C@@H](NC(C)=O)C(=O)NCc1ccccc1 [LCM, lacosamide]
LCM protein binding [12]: ~15% | LCM-free drug, peak plasma [13]: 49 µmol/L | recovery of fast inactivated channels [4]: recovered similar to control conditions | Fast inactivation V0.5 ([7]; mean ± SEM): −53.54 ± 3.95 mV | Slow inactivation V0.5 ([7]; mean ± SEM): −37.04 ± 2.72 mV | time constant for entering the slow inactivated state [7]: 10.91 s

NC(=O)N1c2ccccc2CC(=O)c2ccccc21 [OXC, oxcarbazepine]
CSF Cmax of nonmetabolized OXC ([14]; ESL 1200 mg QD): 380 nM | CSF Cmax of nonmetabolized OXC ([14]; OXC 600 mg BID): 1820 nM | recovery of fast inactivated channels [4]: required longer pulses to recover | Fast inactivation V0.5 ([7]; mean ± SEM): −55.95 ± 2.91 mV | Slow inactivation V0.5 ([7]; mean ± SEM): −19.47 ± 4.55 mV | time constant for entering the slow inactivated state [7]: not affected

NS(=O)(=O)c1cccc2c1c([N+](=O)[O-])cc1nc(O)c(O)nc12 [NBQX, 2,3-Dioxo-6-nitro-1,2,3,4-tetrahydrobenzo[f]quinoxaline-7-sulfonamide]
IC50 (human GRIA1 receptor): 19 µM

N[C@H](CCCP(=O)(O)O)C(=O)O [D-AP5, D-(−)-2-amino-5-phosphonopentanoic]
IC50 ([5]; read-out: IC50, NMDA receptor-mediated currents, submaximal currents, HEK cells GRIN1/GRIN2B): 7 µM
